# Values quoted from earlier work as cited in patent US11510865B2, “Magnolia bark extract as a hydrophobic ligand for preferential removal of gram negative bacteria from the oral cavity” (WM. WRIGLEY JR. COMPANY, priority 2015, dated 2022).
# System: S. mutans (ATCC 10449)
# Details: increased from 0.01; Jongsma et al. 2015
compound,measurement,value
Oc1cc(Cl)ccc1Oc1ccc(Cl)cc1Cl [triclosan],removal rate,0.05
